Measured values as given in US20100216661A1, “Diagnostic Assay” (priority 2007, published 2010).

Tests used:
[1] = test system: anti-Fy^a monoclonal antibody (LM487); assay: Phage ELISA (capture ELISA) of phage-peptides on coated anti-Fy^a antibody; assay type: binding, Murine; conditions: FIG. 3; 19 Fya phage-peptide clones (Fya1-18 & Fya25); OD450 greater than 0.1 considered positive
Procedure: (§1) The ability of the recovered phage-peptides to react with the antibodies used in their selection was confirmed by capture ELISA. A 10 μg/ml stock of appropriate monoclonal antibody was prepared in ELISA coating buffer and 150 μl aliquots were added to wells of an Immulon 4 ELISA plate, and then incubated overnight at 4° C. Unbound antibody was discarded and the wells were blocked with 350 μl of blocking buffer (0.1M NaHCO3/3% skimmed milk powder) for 1 hour at 4° C. The wells were washed three times with 300 μl TBS/0.5% Tween 20 and 100 μl of selected phage culture supernatants were added to appropriate wells for 1 hour at room temperature. Unbound phage were removed and the wells washed six times with 300 μl TBS/0.5% Tween 20. A 1:5000 dilution of horseradish peroxidase (HRP) conjugated anti-M13, secondary antibody was prepared in blocking buffer and 100 μl aliquots added to each well. Following incubation for 1 hour at room temperature the wells were washed six times with 300 μl TBS/0.5% Tween 20. To develop the reactions, a 200 μl aliquot of o-phenylenediamine dihydrochloride (OPD) substrate (Sigma) was added to each well. The absorbance at 450 nm was measured, following incubation at room temperature for 1 hour, by a microplate ELISA reader. An OD450 signal greater than 0.1 was considered positive.
Phage ELISA analysis of 19 “Fy^a” phage-peptide clones (Peptides Fya1-18 & Fya25; see Table 3 for sequence details) confirmed the binding specificity of the LM487 antibody for the Fy^a phage-peptides.

[2] = test system: anti-Fy^b monoclonal antibody (LM447); assay: Phage ELISA (capture ELISA) of phage-peptides on coated anti-Fy^b antibody; assay type: binding, Murine; conditions: FIG. 1, LM447 coated from 10 μg/ml stock, phage culture supernatant, OD450 greater than 0.1 considered positive, 20 phage assayed
Procedure: as §1
The phage ELISA results confirmed the binding of the anti-Fy^b monoclonal, LM447. A 10 μg/ml stock of this monoclonal antibody was prepared in ELISA coating buffer and 150 μl aliquots were added to wells of an Immulon 4 ELISA plate, and then incubated overnight at 4° C. Unbound antibody was discarded and the wells were blocked with 350 μl of blocking buffer for 1 hour at 4° C. The wells were washed three times with 300 μl TBS/0.5% Tween 20 and 100 μl of selected phage culture supernatants were added to appropriate wells for 1 hour at room temperature. Unbound phage were removed and the wells washed six times with 300 μl TBS/0.5% Tween 20. A 1:5000 dilution of horseradish peroxidase (HRP) conjugated anti-M13, secondary antibody was prepared in blocking buffer and 100 μl aliquots added to each well. Following incubation for 1 hour at room temperature the wells were washed six times with 300 μl TBS/0.5% Tween 20. To develop the reactions, 200 μl aliquots of o-phenylenediamine dihydrochloride (OPD) substrate (Sigma) was added to each well. The absorbance at 450 nm was measured following incubation at room temperature for 1 hour. The absorbance values at 450 nm, confirmed the binding of 14 (Peptides Fyb1, Fyb2, Fyb4-5, Fyb7-13, Fyb25, 27 & 28) of the 20 phage assayed (see FIG. 1).

[3] = test system: anti-Fy^b monoclonal antibody (LM447); assay: SPOTs membrane hybridisation with anti-Fy^b antibody; assay type: binding, Murine; conditions: FIG. 2; 20 Fyb peptides in duplicate; CPep75 (Spot 21) positive control; 2 μg/ml primary antibody; chemiluminescence
Procedure: (§2) The peptide mimotopes were synthesised by the SPOT method (Frank; 1992) using F-moc chemistry. The peptides were anchored to an amino-PEG derivatised cellulose membrane (Intavis AG) and synthesised as discrete spots. Synthesis was by stepwise elongation of the peptide chain from C-terminus to the N-terminus, by manual pipetting of the respective amino acids, according to the Sigma Genosys protocol. Incubation times were modified when using Intavis AG membranes. After addition of the final amino acid, the terminal residues and side chains of the peptides were deprotected and the membrane was washed with methanol; air dried and then stored at −20° C. prior to use.
(§3) A membrane was placed in a 50 ml Falcon tube and blocked overnight at 4° C. with gentle agitation in TBS/0.25% Tween 20/5% skimmed milk powder. A 2 μg/ml dilution of the primary (1°) antibody (monoclonal or polyclonal) was prepared in TBS/0.25% Tween20/5% skimmed milk powder before incubation with the membrane for 1 hour at room temperature on a spiral rotor. Following 4 washes, each for 5 minutes with 20 ml of TBS/0.25% Tween20, the membrane was incubated for 1 hour at room temperature with a 1/5000 dilution of the secondary (2°) antibody, prepared in TBS/0.25% Tween20/5% skimmed milk powder. Peroxidase labelled rabbit anti-mouse IgG (Sigma) was used for the detection of the murine anti-Fy^a (LM487) and anti-Fy^b (LM447) 1° antibodies and peroxidase labelled goat anti-human IgG (Pharmacia) for the detection of the human 1° antibodies. Following 4 washes, each for 5 minutes with 20 ml of TBS/0.25% Tween20, the membrane was blotted to remove excess fluid. Bound antibody was detected by chemiluminescence. ECL detection reagents (Amersham Biosciences) were mixed and overlaid on the membrane for 2 minutes. The chemiluminescent substrate was removed and the membrane blotted to remove excess fluid. Positive spots were visualised following exposure to Hyperfilm ECL (Amersham Biosciences) for a series of short incubation times (5 seconds to 10 minutes).

[4] = test system: anti-RhE monoclonal antibody E0002; assay: SPOTs membrane hybridisation with anti-RhE monoclonal E0002; assay type: binding, Human; conditions: FIG. 9; 36 RhE peptide mimotopes; CPep75 (Spot 37), CPep76 (Spot 38) negative controls
Procedure: as §2, §3
The RhD, RhE and Rhe peptide mimotopes (see Tables 4 & 5) were synthesised by SPOTs and hybridisation of the membranes was undertaken with the appropriate antibodies (Table 1). FIGS. 7-10 show examples of peptide mimotopes reacting specifically with the antibody originally used in their selection.

[5] = test system: anti-RhE monoclonal antibody E0002 (NaTH110-1D6); assay: Biopanning of phage-peptide libraries with anti-RhE E0002; assay type: binding, Human; conditions: IgM antibody
Excerpt: (§4) Three different phage libraries from New England Biolabs. (Ph.D. 7 and Ph.D. 12 displaying linear 7- and 12-mer peptides, respectively and Ph.D. C7C displaying 7-mer peptides constrained by a disulphide bridge at their termini) and a linear 15mer library (kindly provided by Prof. George P. Smith, University of Missouri) were used in biopanning experiments with 10 different monoclonal antibodies and a polyclonal preparation (Table 1).
For each target antibody/library combination, a separate well of a 96-well Immulon 4 flat-bottomed ELISA plate (Thermo Labsystems) was coated with 5 μg of antibody in 150 μl ELISA coating buffer (15 mM Na2CO3, 35 mM NaHCO3, pH9.6). Plates were sealed and incubated at 4° C. overnight. Unbound antibody was discarded and 350 μl of blocking buffer (0.1M NaHCO3/3% skimmed milk powder) was added to each well. Plates were sealed and incubated for 1 hour at 4° C. The blocking buffer was removed and the wells were washed six times with 300 μl TBS/0.1% Tween 20. Approximately 2×10^11 plaque forming units (pfu) in 100 μl TBS/0.1% Tween 20 were added to each well and the plates were incubated at room temperature for 1 hour. Wells were washed ten times with 300 μl TBS/0.1% Tween 20. Bound phage were eluted by incubation with 100 μl of 0.2M glycine-HCl/BSA, pH2.2 (1 mg/ml) for 10 minutes, then neutralised with 15 μl of 1M Tris-HCL (pH9.1). An aliquot of the Round 1 eluate was removed and titred. The remainder of the eluted phage were amplified by infection of E. coli ER2538 cells for 4.5 hours at 37° C. The cultures were centrifuged for 10 minutes at 10,000 rpm at 4° C. The supernatants were recovered, ⅙ volume PEG/NaCl (20% polyethylene glycol 8000; 2.5M NaCl) added, then incubated overnight at 4° C. The PEG-precipitated phage were centrifuged at 10,000 rpm for 15 minutes at 4° C. The supernatant was removed and the phage pellet resuspended in 200 μl TBS. […] The specificity of peptide-antibody binding was subsequently determined using both phage ELISA and SPOTs techniques.

[6] = test system: anti-RhE monoclonal antibody E0001 (HIRO17); assay: Biopanning of phage-peptide libraries with anti-RhE E0001; assay type: binding, Human; conditions: IgG1 antibody
Excerpt: as §4
For each target antibody/library combination, a separate well of a 96-well Immulon 4 flat-bottomed ELISA plate (Thermo Labsystems) was coated with 5 μg of antibody in 150 μl ELISA coating buffer (15 mM Na2CO3, 35 mM NaHCO3, pH9.6). Plates were sealed and incubated at 4° C. overnight. Unbound antibody was discarded and 350 μl of blocking buffer (0.1M NaHCO3/3% skimmed milk powder) was added to each well. Plates were sealed and incubated for 1 hour at 4° C. The blocking buffer was removed and the wells were washed six times with 300 μl TBS/0.1% Tween 20. Approximately 2×10^11 plaque forming units (pfu) in 100 μl TBS/0.1% Tween 20 were added to each well and the plates were incubated at room temperature for 1 hour. Wells were washed ten times with 300 μl TBS/0.1% Tween 20. […] The specificity of peptide-antibody binding was subsequently determined using both phage ELISA and SPOTs techniques.

[7] = test system: polyclonal anti-RhD preparation (Human Anti-D Ig); assay: SPOTs membrane hybridisation with polyclonal anti-RhD; assay type: binding; conditions: FIG. 8; Spots 1-25 = RhD81-105; Spots 26-28 = RhD68, RhD71, RhD79; Spot 29 CPep75 and Spot 30 CPep76 negative controls
Procedure: as §2
as §3, with “minutes). […]” for “minutes).”

[8] = test system: anti-RhD monoclonal antibody T10 (LHM76/55); assay: Biopanning of phage-peptide libraries with anti-RhD T10; assay type: binding, Human; conditions: phage-peptide libraries; three rounds of panning
Excerpt: as §4
For each target antibody/library combination, a separate well of a 96-well Immulon 4 flat-bottomed ELISA plate (Thermo Labsystems) was coated with 5 μg of antibody in 150 μl ELISA coating buffer (15 mM Na2CO3, 35 mM NaHCO3, pH9.6). Plates were sealed and incubated at 4° C. overnight. Unbound antibody was discarded and 350 μl of blocking buffer (0.1M NaHCO3/3% skimmed milk powder) was added to each well. Plates were sealed and incubated for 1 hour at 4° C. The blocking buffer was removed and the wells were washed six times with 300 μl TBS/0.1% Tween 20. Approximately 2×10^11 plaque forming units (pfu) in 100 μl TBS/0.1% Tween 20 were added to each well and the plates were incubated at room temperature for 1 hour. Wells were washed ten times with 300 μl TBS/0.1% Tween 20. Bound phage were eluted by incubation with 100 μl of 0.2M glycine-HCl/BSA, pH2.2 (1 mg/ml) for 10 minutes, then neutralised with 15 μl of 1M Tris-HCL (pH9.1). An aliquot of the Round 1 eluate was removed and titred. The remainder of the eluted phage were amplified by infection of E. coli ER2538 cells for 4.5 hours at 37° C. The cultures were centrifuged for 10 minutes at 10,000 rpm at 4° C. The supernatants were recovered, ⅙ volume PEG/NaCl (20% polyethylene glycol 8000; 2.5M NaCl) added, then incubated overnight at 4° C. The PEG-precipitated phage were centrifuged at 10,000 rpm for 15 minutes at 4° C. The supernatant was removed and the phage pellet resuspended in 200 μl TBS. Two further rounds of panning were undertaken and approximately 2×10^11 pfu of the Round 2 or Round 3 amplified eluates were used as input phage. Round 3 eluates were titrated but not amplified. Individual plaques were amplified and subjected to PCR amplification, prior to DNA sequence analysis. The specificity of peptide-antibody binding was subsequently determined using both phage ELISA and SPOTs techniques.

Substance: Fya18: Fya peptide mimotope, Table 3 (PSPGQI)
- Phage ELISA binding of phage-peptide to anti-Fy^a antibody LM487 [1]: failed to bind

Substance: Fya2: Fya peptide mimotope, Table 3 (TNLRLPA)
- Phage ELISA binding of phage-peptide to anti-Fy^a antibody LM487 [1]: failed to bind

Substance: MVQELPFVLRSK [Fyb11]
- Phage ELISA binding of phage-peptide to anti-Fy^b antibody LM447 (absorbance at 450 nm) ([2]; listed as Fybll): phage ELISA signals equally as strong as Peptides Fyb12 and Fyb13
- SPOTs binding of anti-Fy^b antibody LM447 to membrane-synthesised peptide [3]: failed to react

Substance: MFQPTHWGTRLS [Fyb9]
- Phage ELISA binding of phage-peptide to anti-Fy^b antibody LM447 (absorbance at 450 nm) [2]: phage ELISA signals equally as strong as Peptides Fyb12 and Fyb13
- SPOTs binding of anti-Fy^b antibody LM447 to membrane-synthesised peptide [3]: failed to react

Substance: RhE25: RhE peptide mimotope, Table 5 (GLSYYALITRYLGAA)
- SPOTs binding of anti-RhE monoclonal antibody E0002 [4]: Specific binding

Substance: RhE19: RhE peptide mimotope, Table 5 (SFQDALLSRWYS)
- Selection by biopanning with anti-RhE antibody E0002 [5]: selected
- Selection by biopanning with anti-RhE antibody E0001 [6]: selected
- SPOTs binding of anti-RhE monoclonal antibody E0002 [4]: Specific binding

Substance: MFQEHTPAFGGL [Fyb7]
- Phage ELISA binding of phage-peptide to anti-Fy^b antibody LM447 (absorbance at 450 nm) [2]: phage ELISA signals equally as strong as Peptides Fyb12 and Fyb13
- SPOTs binding of anti-Fy^b antibody LM447 to membrane-synthesised peptide [3]: failed to react

Substance: RhD68: RhD peptide mimotope, Table 4 (LDTYWYREHFRR)
- SPOTs recognition by polyclonal anti-RhD [7]: recognised
- Selection by biopanning with anti-RhD monoclonal antibody T10 [8]: identified through biopanning
